Patent publication US20230255961A1, “Rotomeric Isomers of 4-Alkyl-5-Heteroaryl-3H-1,2-Dithiole-3-Thiones” (ST IP Holding AG, priority 2020, published 2023)
Read-outs that look alike come from different tables or passages of the source.

What was measured:
HGEPp cells [1] = assay: ROS production in H2O2-induced oxidatively stressed HGEPp cells; format: cell-based, human; conditions: HGEPp cells pretreated 24 hrs at 100 μg/mL prior to 0.3 mM H2O2 for 4 h; positive control 139%
Protocol: That same assay was carried out on the rotomer compositions prepared in Examples 1-11 above to determine their effect on protecting primary human gingival epithelial cells (HGEPp) cells from oxidative damage induced by hydrogen peroxide (H2O2).

rat cortical neurons = assay: Caspase 3/7 activation assay, OGD-induced neurotoxicity in rat cortical neurons; format: cell-based; conditions: for OGD induced caspase 3/7 activation / neuroprotection: 100 μg/ml, 1 h incubation eighteen hours prior to OGD, FIG. 7
Protocol: The effect of the rotomer complexes of Examples 1, 2, 3 and 9 on neurotoxicity induced by oxygen glucose deprivation (OGD) was tested in a caspase 3/7 activation assay. The assay was applied to freshly isolated rat cortical neurons cultured in 96-well-plates and exposed to the compounds at 100 μg/ml.
In vitro ischemic injury was induced in rat primary neuronal culture by oxygen-glucose deprivation for 2 hours. Neurons were incubated with the compounds for 1 hour eighteen hours prior to the OGD induction. Dizocilpine (MK801) 10 μM was used as positive neuroprotection control. After treatments, incubated with three optically compatible fluorescent dyes, and subsequently analyzed with BD Pathway 855 (Becton Dickinson). Cell parameters associated with caspase 3/7 activation—indicative of pre-lethal cytotoxic effects—were measured by high content screening at single cell level.
Primary cultures of cortical neurons were isolated from cerebral cortices of Sprague-Dawley rat fetuses at embryonic day 18. Brains were removed and after removing the meninges, the tissues were dissected under a binocular microscope. Neurons were enzymatically dispersed by trypsin 0.2% and DNAse […] digestion for 10 min at 37° C. plated in poly-L-lysine wells and incubated with B27 supplemented neurobasal medium.
Cortical neurons of 18 days old embryonic rats were plated in poly-1-lysine coated 96-well plates (30,000 cells per well). Cells were maintained in neurobasal medium supplemented with B-27 component: for 5 days at 37° C. in a humidified 5% CO2 atmosphere. At day 5, cells were subjected to oxygen glucose deprivation (OGD) for 2 hours at 37° C. The cultures were placed in an […] chamber (Billops-Rothenberg) and incubated in neurobasal medium lacking glucose and B27 factor and aerated with an anaerobic gas mixture (94.7% N2. 5% CO2, 0.3% O2) to remove residual oxygen. Control cultures were kept in the original neurobasal medium but were submitted to the anaerobic conditions. At the end of the OGD conditions, the cells were removed from the anaerobic chamber, the OGD medium was replaced with neurobasal medium containing glucose, and the cells were incubated for an additional 24 h. The test compounds were added to the neurons eighteen hours prior to the OGD induction and maintained for 1 h. Replicate cultures were treated as described above with dizocilpine (MK801) as positive control of neuroprotection. The neuroprotective potential of the four rotomer complexes was determined by a caspase 3/7 activation assay.
(§1) Caspase 3/7 activation was determined using The CellEvent® Caspase-3/7 Green Detection Reagent which is intrinsically a non-fluorescent peptide that inhibits the ability of the dye to bind to DNA. However, after caspase-3/7 activation in apoptotic cells, the peptide is cleaved allowing the dye to bind to DNA producing a bright, fluorogenic response. Cell were stained with 5 μM reagent, washed 3 times and measured at 488 nm/530 nm Ex/Em. This dye permits the direct quantification of apoptotic cells.

[2] = tested on: mouse neonatal primary cardiomyocyte; conditions: 100 μg/ml, 4 hours prior to OGD, during 18 h OGD and 24 h recovery; FIG. 9
Protocol: as §1

GTF2i = assay: Human oxidative stress RT2 Profiler PCR array in HGEPp cells: GTF2i; format: cell-based; conditions: HGEPp cells pretreated 24 h at 100 μg/ml; ΔΔCt
Protocol: (§2) RT-PCR was performed on an iCycler.

GCLM = assay: Human oxidative stress RT2 Profiler PCR array in HGEPp cells: GCLM; format: cell-based; conditions: HGEPp cells pretreated 24 h at 100 μg/ml; ΔΔCt
Protocol: as §2

UCP2 = assay: Human oxidative stress RT2 Profiler PCR array in HGEPp cells: UCP2; format: cell-based; conditions: HGEPp cells pretreated 24 h at 100 μg/ml; ΔΔCt
Protocol: as §2

GSTP1 = assay: Human oxidative stress RT2 Profiler PCR array in HGEPp cells: GSTP1; format: cell-based; conditions: HGEPp cells pretreated 24 h at 100 μg/ml; ΔΔCt
Protocol: as §2

MPO = assay: Human oxidative stress RT2 Profiler PCR array in HGEPp cells: MPO; conditions: HGEPp cells pretreated 24 h at 100 μg/ml; ΔΔCt
Protocol: (§3) Pooled primary HGEPp cells were propagated in CnT-Prime epithelial culture medium provided by CellnTec on 100 mm petri dishes coated with 30 mg/ml Type I rat tail collagen (BD Biosciences) diluted in Duibecco's phosphate-buffered saline (DPBS). HGEPp cells were grown in 12×60 mm Nunc™ Cell Culture dishes at a 2.5×10^4 cells/cm2 density concentration.
(§4) All dosing solutions contained 0.3% of DMSO which is well below the maximum tolerated DMSO percent of 0.8% for HGEPp cells.
(§5) The RN-easy UCP Micro Kit was used to purify mRNA from the HGEPp cells.
(§6) The assay was reliably used to analyze expression levels of 84 genes related to oxidative stress in HGEPp cells pre-treated with ST-617-APT, ST-617-DPT and the rotomeric complexes at 100 μg/ml for 24 h. The cDNA from above was mixed with the RT2 SYBR Green fluor Mastermix and aliquoted into the wells of the RT2 Profiler PCR Array. RT-PCR was performed on an iCycler. Gene expression was compared using et values and the results were calculated using ΔΔ Ct method with normalization to the average expression levels of the five common genes (ACTB, B2M, GAPDH, HPRT, and RPL13A).

ALOX12 = assay: Human oxidative stress RT2 Profiler PCR array in HGEPp cells: ALOX12; format: cell-based; conditions: HGEPp cells pretreated 24 h at 100 μg/ml; ΔΔCt
Protocol: as §2

PTGS1 = assay: Human oxidative stress RT2 Profiler PCR array in HGEPp cells: PTGS1; format: cell-based; conditions: HGEPp cells pretreated 24 h at 100 μg/ml; ΔΔCt
Protocol: as §2

NQO1 = assay: Human oxidative stress RT2 Profiler PCR array in HGEPp cells: NQO1; format: cell-based; conditions: HGEPp cells pretreated 24 h at 100 μg/ml; ΔΔCt
Protocol: as §2

GCLC = assay: Human oxidative stress RT2 Profiler PCR array in HGEPp cells: GCLC; format: cell-based; conditions: HGEPp cells pretreated 24 h at 100 μg/ml; ΔΔCt
Protocol: as §2

SOD1 = assay: Human oxidative stress RT2 Profiler PCR array in HGEPp cells: SOD1; format: cell-based; conditions: HGEPp cells pretreated 24 h at 100 μg/ml; ΔΔCt
Protocol: as §2

GPX4 = assay: Human oxidative stress RT2 Profiler PCR array in HGEPp cells: GPX4; conditions: HGEPp cells pretreated 24 h at 100 μg/ml; ΔΔCt
Protocol: as §3, §4, §5, §6

PRDX2 = assay: Human oxidative stress RT2 Profiler PCR array in HGEPp cells: PRDX2; conditions: HGEPp cells pretreated 24 h at 100 μg/ml; ΔΔCt
Protocol: as §3, §4, §5, §6

GPX1 = assay: Human oxidative stress RT2 Profiler PCR array in HGEPp cells: GPX1; format: cell-based; conditions: HGEPp cells pretreated 24 h at 100 μg/ml; ΔΔCt
Protocol: as §2

[3] = tested on: oxidative stress-related genes in HGEPp cells; assay: Human oxidative stress RT2 Profiler PCR array in HGEPp cells: statements over several genes; conditions: for SOD1, NQ01, GCLC, GSTP1 and GCLM; 100 μg/ml, 24 h
Protocol: as §3, §4, §5, §6

HGEPp cells [4] = conditions: 100 μg/mL pretreatment; taken from PCT/IB2017/001312; cited from earlier work

Molecule | ROS level relative to Normal (100%, optical density baseline) (HGEPp cells [1]) [%] | OGD induced caspase 3/7 activation (rat cortical neurons) | neuroprotection (rat cortical neurons) | cardioprotection [2] | GTF2i down regulation relative fold change (GTF2i) [fold] | GCLM up regulation relative fold change (GCLM) [fold] | UCP2 down regulation relative fold change (UCP2) [fold] | GSTP1 up regulation relative fold change (GSTP1) [fold] | MPO up regulation relative fold change (MPO) [fold] | ALOX12 up regulation relative fold change (ALOX12) [fold] | PTGS1 down regulation relative fold change (PTGS1) [fold] | NQO1 up regulation relative fold change (NQO1) [fold] | GCLC up regulation relative fold change (GCLC) [fold] | SOD1 up regulation relative fold change (SOD1) [fold] | GPX4 up regulation relative fold change (GPX4) [fold] | PRDX2 down regulation relative fold change (PRDX2) [fold] | GPX1 up regulation relative fold change (GPX1) [fold] | up-regulation compared to ST-617-DPI and ST-617-DPI [3] | prevention of OGD-induced apoptosis based on caspase activation (rat cortical neurons; 10 μM, OGD 2 hours, measured 24 h after exposure) [%] | ROS level relative to Normal (100%, optical density baseline) (HGEPp cells [4]) [%]
Cc1c(-c2cnccn2)ssc1=S.Cl [Example 1, hydrochloride complex of oltipraz] | 128 | significantly reduced | high degree of neuroprotection | significant degree of cardioprotection | – | – | – | – | – | – | – | – | – | – | – | – | – | – | – | –
Cc1c(-c2cncc[n+]2OC2=CC(=O)OC2=O)ssc1=S [Example 2, hydroxymaleate anhydride complex of oltipraz] | 116 | significantly reduced | high degree of neuroprotection | significant degree of cardioprotection | – | – | – | – | – | – | – | – | – | – | – | – | – | – | – | –
CC(=O)[n+]1ccncc1-c1ssc(=S)c1C.[Cl-] [Example 3, acetyl chloride complex of oltipraz] | 129 | significantly reduced | high degree of neuroprotection | significant degree of cardioprotection | 0.32 | 2.38 | 0.26 | 2.87 | 3.10 | 6.33 | 0.29 | 3.36 | 3.27 | 4.24 | 2.83 | 0.33 | 4.76 | – | – | –
CCCC[n+]1ccncc1-c1ssc(=S)c1C.[Cl-] [Example 4, n-butyl chloride complex of oltipraz] | 128 | – | – | – | 0.35 | 2.38 | 0.25 | 2.88 | 3.20 | 5.82 | 0.27 | 3.34 | 3.35 | 4.15 | 2.96 | 0.32 | 4.80 | – | – | –
Cc1c(-c2cncc[n+]2C)ssc1=S.[I-] [Example 5, methyl iodide complex of oltipraz] | 134 | – | – | – | 0.33 | 2.27 | 0.29 | 2.90 | 3.18 | 6.04 | 0.28 | 3.15 | 3.38 | 3.89 | 2.85 | 0.32 | 4.98 | – | – | –
Cc1c(-c2cncc[n+]2C(=O)c2ccccc2)ssc1=S.[Cl-] [Example 6, benzoyl chloride complex of oltipraz] | 131 | – | – | – | 0.36 | 2.25 | 0.28 | 2.74 | 3.05 | 5.93 | 0.28 | 3.17 | 3.31 | 3.92 | 2.91 | 0.31 | 4.43 | – | – | –
COP(=O)([O-])OC.Cc1c(-c2c[n+](C)ccn2)ssc1=S [Example 9, dimethyl phosphate complex of N-methyl oltipraz] | 112 | significantly reduced | high degree of neuroprotection | significant degree of cardioprotection | 0.28 | 3.15 | 0.15 | 3.16 | 3.41 | 6.43 | 0.21 | 4.24 | 4.60 | 5.22 | 2.93 | 0.27 | 4.89 | significantly higher up-regulation | – | –
Cc1c(-c2cnccn2)ssc1=S.O=S(=O)(O)CCO [Example 10, isethionic acid complex of oltipraz] | 113 | – | – | – | – | – | – | – | – | – | – | – | – | – | – | – | – | significantly higher up-regulation | – | –
C[C@]12N[C@H](Cc3ccccc31)c1ccccc12 [MK801, Dizocilpine, reference compound] | – | – | – | – | – | – | – | – | – | – | – | – | – | – | – | – | – | – | 28 | –
Cc1c(-c2cnccn2)ssc1=S [ST-617-API, 4-methyl-5-(pyrazin-2-yl)-3H-1,2-dithiole-3-thione, reference compound] | – | – | – | – | – | – | – | – | – | – | 6.22 | – | – | – | – | – | – | – | – | 124
thiobenzoic acid complex of oltipraz [Example 11] | 116 | – | – | – | – | – | – | – | – | – | – | – | – | – | – | – | – | – | – | –
